Assays:
Assay in all cases: relative viability (nuclei count vs DMSO), 5 days (fraction); higher = more cells survive
COR-L 105 = tested on: COR-L 105
Procedure, shortened: (§1)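 Relative viability was taken as the ratio of nuclei in treated wells to nuclei in vehicle wells. Lung cancer cell lines in 1536-well plates received compounds by pin tool one day after seeding, either one drug alone or a fixed anchor-drug dose plus five library-drug doses (not always all listed) in √10 steps. Nuclei were counted on 4× images after 5 days of treatment, and values are medians of duplicate plates.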

COR-L23 = tested on: COR-L23
Procedure, shortened: as §1

HARA = tested on: HARA
Procedure, shortened: as §1

HCC-15 = tested on: HCC-15
Procedure, shortened: as §1

HOP-62 = tested on: HOP-62
Procedure, shortened: as §1

NCI-H1355 = tested on: NCI-H1355
Procedure, shortened: as §1

NCI-H1395 = tested on: NCI-H1395
Procedure, shortened: as §1

NCI-H1734 = tested on: NCI-H1734
Procedure, shortened: as §1

NCI-H1755 = tested on: NCI-H1755
Procedure, shortened: as §1

NCI-H1792 = tested on: NCI-H1792
Procedure, shortened: as §1

NCI-H1793 = tested on: NCI-H1793
Procedure, shortened: as §1

NCI-H1993 = tested on: NCI-H1993
Procedure, shortened: as §1

NCI-H2009 = tested on: NCI-H2009
Procedure, shortened: as §1

NCI-H2170 = tested on: NCI-H2170
Procedure, shortened: as §1

NCI-H2228 = tested on: NCI-H2228
Procedure, shortened: as §1

NCI-H2347 = tested on: NCI-H2347
Procedure, shortened: as §1

NCI-H358 = tested on: NCI-H358
Procedure, shortened: as §1

NCI-H647 = tested on: NCI-H647
Procedure, shortened: as §1

NCI-H838 = tested on: NCI-H838
Procedure, shortened: as §1

SK-MES-1 = tested on: SK-MES-1
Procedure, shortened: as §1

UMC-11 = tested on: UMC-11
Procedure, shortened: as §1

Compound: CCN(CC)CCCCNc1ncc2cc(-c3cc(OC)cc(OC)c3)c(NC(=O)NC(C)(C)C)nc2n1 + CS(=O)(=O)CCNCc1ccc(-c2ccc3ncnc(Nc4ccc(OCc5cccc(F)c5)c(Cl)c4)c3c2)o1 [Lapatinib] (partner 2 µM)
- relative viability (COR-L 105; first compound 0.01 µM): 0.386
- relative viability (COR-L 105; first compound 0.03162 µM): 0.361
- relative viability (COR-L 105; first compound 0.1 µM): 0.399
- relative viability (COR-L 105; first compound 0.3162 µM): 0.422
- relative viability (COR-L 105; first compound 1 µM): 0.387
- relative viability (COR-L23; first compound 0.01 µM): 1.09
- relative viability (COR-L23; first compound 0.03162 µM): 0.973
- relative viability (COR-L23; first compound 0.1 µM): 0.943
- relative viability (COR-L23; first compound 0.3162 µM): 1.19
- relative viability (COR-L23; first compound 1 µM): 0.881
- relative viability (HARA; first compound 0.01 µM): 0.833
- relative viability (HARA; first compound 0.03162 µM): 0.469
- relative viability (HARA; first compound 0.1 µM): 0.764
- relative viability (HARA; first compound 0.3162 µM): 0.581
- relative viability (HARA; first compound 1 µM): 0.227
- relative viability (HCC-15; first compound 0.01 µM): 0.871
- relative viability (HCC-15; first compound 0.03162 µM): 0.944
- relative viability (HCC-15; first compound 0.1 µM): 0.83
- relative viability (HCC-15; first compound 0.3162 µM): 1.07
- relative viability (HCC-15; first compound 1 µM): 0.779
- relative viability (HOP-62; first compound 0.01 µM): 1.01
- relative viability (HOP-62; first compound 0.03162 µM): 1.16
- relative viability (HOP-62; first compound 0.1 µM): 1.19
- relative viability (HOP-62; first compound 0.3162 µM): 1.09
- relative viability (HOP-62; first compound 1 µM): 1.33
- relative viability (NCI-H1355; first compound 0.01 µM): 1
- relative viability (NCI-H1355; first compound 0.03162 µM): 0.897
- relative viability (NCI-H1355; first compound 0.1 µM): 1.2
- relative viability (NCI-H1355; first compound 0.3162 µM): 1.19
- relative viability (NCI-H1355; first compound 1 µM): 0.924
- relative viability (NCI-H1395; first compound 0.03162 µM): 0.93
- relative viability (NCI-H1395; first compound 0.1 µM): 1.07
- relative viability (NCI-H1395; first compound 0.3162 µM): 0.725
- relative viability (NCI-H1395; first compound 1 µM): 0.551
- relative viability (NCI-H1734; first compound 0.01 µM): 1.06
- relative viability (NCI-H1734; first compound 0.03162 µM): 1.2
- relative viability (NCI-H1734; first compound 0.1 µM): 1.39
- relative viability (NCI-H1734; first compound 0.3162 µM): 1.13
- relative viability (NCI-H1734; first compound 1 µM): 1.02
- relative viability (NCI-H1755; first compound 0.01 µM): 1.12
- relative viability (NCI-H1755; first compound 0.03162 µM): 1.06
- relative viability (NCI-H1755; first compound 0.1 µM): 1.04
- relative viability (NCI-H1755; first compound 0.3162 µM): 1.16
- relative viability (NCI-H1755; first compound 1 µM): 0.793
- relative viability (NCI-H1792; first compound 0.01 µM): 0.97
- relative viability (NCI-H1792; first compound 0.03162 µM): 0.886
- relative viability (NCI-H1792; first compound 0.1 µM): 1.21
- relative viability (NCI-H1792; first compound 0.3162 µM): 1.64
- relative viability (NCI-H1792; first compound 1 µM): 0.433
- relative viability (NCI-H1793; first compound 0.01 µM): 0.623
- relative viability (NCI-H1793; first compound 0.1 µM): 1.03
- relative viability (NCI-H1793; first compound 0.3162 µM): 0.562
- relative viability (NCI-H1793; first compound 1 µM): 0.367
- relative viability (NCI-H1993; first compound 0.01 µM): 0.85
- relative viability (NCI-H1993; first compound 0.03162 µM): 0.719
- relative viability (NCI-H1993; first compound 0.1 µM): 0.774
- relative viability (NCI-H1993; first compound 0.3162 µM): 0.785
- relative viability (NCI-H1993; first compound 1 µM): 0.738
- relative viability (NCI-H2009; first compound 0.01 µM): 0.898
- relative viability (NCI-H2009; first compound 0.03162 µM): 0.971
- relative viability (NCI-H2009; first compound 0.1 µM): 0.956
- relative viability (NCI-H2009; first compound 0.3162 µM): 0.932
- relative viability (NCI-H2009; first compound 1 µM): 1.43
- relative viability (NCI-H2170; first compound 0.01 µM): 0.282
- relative viability (NCI-H2170; first compound 0.03162 µM): 0.269
- relative viability (NCI-H2170; first compound 0.1 µM): 0.298
- relative viability (NCI-H2170; first compound 0.3162 µM): 0.271
- relative viability (NCI-H2170; first compound 1 µM): 0.276
- relative viability (NCI-H2228; first compound 0.01 µM): 1.06
- relative viability (NCI-H2228; first compound 0.03162 µM): 1.35
- relative viability (NCI-H2228; first compound 0.1 µM): 1.19
- relative viability (NCI-H2228; first compound 0.3162 µM): 1.22
- relative viability (NCI-H2228; first compound 1 µM): 0.74
- relative viability (NCI-H2347; first compound 0.01 µM): 0.923
- relative viability (NCI-H2347; first compound 0.03162 µM): 0.79
- relative viability (NCI-H2347; first compound 0.1 µM): 1.06
- relative viability (NCI-H2347; first compound 0.3162 µM): 0.878
- relative viability (NCI-H2347; first compound 1 µM): 0.931
- relative viability (NCI-H358; first compound 0.01 µM): 0.449
- relative viability (NCI-H358; first compound 0.03162 µM): 0.484
- relative viability (NCI-H358; first compound 0.1 µM): 0.457
- relative viability (NCI-H358; first compound 0.3162 µM): 0.498
- relative viability (NCI-H358; first compound 1 µM): 0.406
- relative viability (NCI-H647; first compound 0.01 µM): 1.22
- relative viability (NCI-H647; first compound 0.03162 µM): 1.25
- relative viability (NCI-H647; first compound 0.1 µM): 1.28
- relative viability (NCI-H647; first compound 0.3162 µM): 1.48
- relative viability (NCI-H647; first compound 1 µM): 0.493
- relative viability (NCI-H838; first compound 0.01 µM): 0.865
- relative viability (NCI-H838; first compound 0.03162 µM): 0.993
- relative viability (NCI-H838; first compound 0.1 µM): 1.2
- relative viability (NCI-H838; first compound 0.3162 µM): 0.969
- relative viability (NCI-H838; first compound 1 µM): 0.563
- relative viability (SK-MES-1; first compound 0.01 µM): 0.518
- relative viability (SK-MES-1; first compound 0.03162 µM): 0.456
- relative viability (SK-MES-1; first compound 0.1 µM): 0.542
- relative viability (SK-MES-1; first compound 0.3162 µM): 0.455
- relative viability (SK-MES-1; first compound 1 µM): 0.354
- relative viability (UMC-11; first compound 0.01 µM): 1.18
- relative viability (UMC-11; first compound 0.03162 µM): 1.04
- relative viability (UMC-11; first compound 0.1 µM): 1.1
- relative viability (UMC-11; first compound 0.3162 µM): 1.11
- relative viability (UMC-11; first compound 1 µM): 0.94
